Data as given in patent US6355799B1, “Substituted benzene compounds, process for their preparation, and herbicidal and defoliant compositions containing them” (ISK Americas Incorporated, priority 1997, dated 2002).

Tests used:
Type in all cases: in vivo
[1] = tested on: redroot pigweed (Amaranthus retroflexus, AMARE); assay: Pre-emerge test, greenhouse herbicide activity screening; conditions: pre-emerge, rated 14 days after application, 0 = no damage, 100 = complete death
How it was run: (§1)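 Compounds in acetone were track-sprayed at 187 l/ha, 15–1000 g ai/ha, onto sandy loam pots. Pre-emerge seeds were sown one day before spraying, with surface watering afterwards. Post-emerge plants were at the 2–3 leaf stage and sprayed with 0.25% v/v non-ionic surfactant. Injury was rated 0–100 at 14 days.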

[2] = tested on: upland rice (Oryza sp., var. Tebonnet, RICE); assay: Post-emerge test, crop safety; conditions: phytotoxicity rating 0-100 (0 no damage, 100 complete death), 14 days after application
How it was run: (§2)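 Sandy loam pots; pre-emerge: sown 1 d pre-spray, surface-watered after, then bottom-watered. Post-emerge: sown 8–21 d before, 2–3 leaf stage, + 0.25% v/v NIS, bottom-watered. Acetone, 187 l/ha track spray, 15–1000 g ai/ha. 0–100 injury score, day 14.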

[3] = tested on: field corn (Zea mays L., var. Dekalb 535, CORN); assay: Post-emerge test, crop safety; conditions: phytotoxicity rating 0-100 (0 no damage, 100 complete death), 14 days after application
How it was run: as §2

[4] = tested on: johnsongrass (Sorghum halepense, SORHA); assay: Pre-emerge test, greenhouse herbicide activity screening; conditions: pre-emerge, rated 14 days after application, 0 = no damage, 100 = complete death
How it was run: as §2

[5] = tested on: velvetleaf (Abutilon theophrasti, ABUTH); assay: as above; conditions: pre-emerge, rated 14 days after application, 0 = no damage, 100 = complete death
How it was run: as §2

[6] = tested on: lambsquarters (Chenopodium album, CHEAL); assay: as above; conditions: pre-emerge, rated 14 days after application, 0 = no damage, 100 = complete death
How it was run: as §2

[7] = tested on: barnyardgrass (Echinochloa crus-galli, ECHCG); assay: as above; conditions: pre-emerge, rated 14 days after application, 0 = no damage, 100 = complete death
How it was run: as §2

[8] = tested on: large crabgrass (Digitaria sanguinalis, DIGSA); assay: as above; conditions: pre-emerge, rated 14 days after application, 0 = no damage, 100 = complete death
How it was run: as §2

[9] = tested on: green foxtail (Setaria viridis, SETVI); assay: as above; conditions: pre-emerge, rated 14 days after application, 0 = no damage, 100 = complete death
How it was run: as §2

[10] = tested on: sicklepod (Cassia obtusifolia, CASOB); assay: as above; conditions: pre-emerge, rated 14 days after application, 0 = no damage, 100 = complete death
How it was run: as §2

[11] = tested on: ivyleaf morningglory (Ipomoea hederacea, IPOHE); assay: as above; conditions: pre-emerge, rated 14 days after application, 0 = no damage, 100 = complete death
How it was run: as §2

[12] = tested on: upland rice (Oryza sp., var. Tebonnet, RICE); assay: Pre-emerge test, crop safety; conditions: pre-emerge, rated 14 days after application, 0 = no damage, 100 = complete death
How it was run: (§3)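 Rating: 0–100 visual injury, 14 DAA. Application: acetone, 187 l/ha, 15–1000 g ai/ha, flat-fan track sprayer with nozzle 40–45 cm above soil or canopy. Post-emerge runs used 0.25% v/v surfactant on 2–3 leaf plants.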

[13] = tested on: field corn (Zea mays L., var. Dekalb 535, CORN); assay: Pre-emerge test, crop safety; conditions: pre-emerge, rated 14 days after application, 0 = no damage, 100 = complete death
How it was run: as §3

[14] = tested on: johnsongrass (Sorghum halepense, SORHA); assay: Post-emerge test, greenhouse herbicide activity screening; conditions: phytotoxicity rating 0-100 (0 no damage, 100 complete death), 14 days after application
How it was run: as §1

[15] = tested on: velvetleaf (Abutilon theophrasti, ABUTH); assay: as above; conditions: phytotoxicity rating 0-100 (0 no damage, 100 complete death), 14 days after application
How it was run: as §1

[16] = tested on: lambsquarters (Chenopodium album, CHEAL); assay: as above; conditions: phytotoxicity rating 0-100 (0 no damage, 100 complete death), 14 days after application
How it was run: as §1

[17] = tested on: redroot pigweed (Amaranthus retroflexus, AMARE); assay: as above; conditions: phytotoxicity rating 0-100 (0 no damage, 100 complete death), 14 days after application
How it was run: as §1

[18] = tested on: barnyardgrass (Echinochloa crus-galli, ECHCG); assay: as above; conditions: phytotoxicity rating 0-100 (0 no damage, 100 complete death), 14 days after application
How it was run: as §1

[19] = tested on: large crabgrass (Digitaria sanguinalis, DIGSA); assay: as above; conditions: phytotoxicity rating 0-100 (0 no damage, 100 complete death), 14 days after application
How it was run: as §1

[20] = tested on: green foxtail (Setaria viridis, SETVI); assay: as above; conditions: phytotoxicity rating 0-100 (0 no damage, 100 complete death), 14 days after application
How it was run: as §1

[21] = tested on: sicklepod (Cassia obtusifolia, CASOB); assay: as above; conditions: phytotoxicity rating 0-100 (0 no damage, 100 complete death), 14 days after application
How it was run: as §1

[22] = tested on: ivyleaf morningglory (Ipomoea hederacea, IPOHE); assay: as above; conditions: phytotoxicity rating 0-100 (0 no damage, 100 complete death), 14 days after application
How it was run: as §1

Cc1c(Cl)cc(F)c(-n2c(=O)cc(C(F)(F)F)n(C)c2=O)c1N [Compound 1-37]
Pre-emerge Herbicidal Activity AMARE (phytotoxicity rating, scale 0-100) ([1]; 63 g ai/ha): 100
Pre-emerge Herbicidal Activity AMARE (phytotoxicity rating, scale 0-100) ([1]; 250 g ai/ha): 100
Post-emerge Herbicidal Activity RICE (crop damage) ([2]; 63 g ai/ha): 25
Post-emerge Herbicidal Activity RICE (crop damage) ([2]; 250 g ai/ha): 60
Post-emerge Herbicidal Activity CORN (crop damage) ([3]; 63 g ai/ha): 10
Post-emerge Herbicidal Activity CORN (crop damage) ([3]; 250 g ai/ha): 60
Pre-emerge Herbicidal Activity SORHA (phytotoxicity rating, scale 0-100) ([4]; 63 g ai/ha): 90
Pre-emerge Herbicidal Activity SORHA (phytotoxicity rating, scale 0-100) ([4]; 250 g ai/ha): 100
Pre-emerge Herbicidal Activity ABUTH (phytotoxicity rating, scale 0-100) ([5]; 63 g ai/ha): 100
Pre-emerge Herbicidal Activity ABUTH (phytotoxicity rating, scale 0-100) ([5]; 250 g ai/ha): 100
Pre-emerge Herbicidal Activity CHEAL (phytotoxicity rating, scale 0-100) ([6]; 63 g ai/ha): 100
Pre-emerge Herbicidal Activity CHEAL (phytotoxicity rating, scale 0-100) ([6]; 250 g ai/ha): 100
Pre-emerge Herbicidal Activity ECHCG (phytotoxicity rating, scale 0-100) ([7]; 63 g ai/ha): 90
Pre-emerge Herbicidal Activity ECHCG (phytotoxicity rating, scale 0-100) ([7]; 250 g ai/ha): 100
Pre-emerge Herbicidal Activity DIGSA (phytotoxicity rating, scale 0-100) ([8]; 63 g ai/ha): 100
Pre-emerge Herbicidal Activity DIGSA (phytotoxicity rating, scale 0-100) ([8]; 250 g ai/ha): 100
Pre-emerge Herbicidal Activity SETVI (phytotoxicity rating, scale 0-100) ([9]; 63 g ai/ha): 100
Pre-emerge Herbicidal Activity SETVI (phytotoxicity rating, scale 0-100) ([9]; 250 g ai/ha): 100
Pre-emerge Herbicidal Activity CASOB (phytotoxicity rating, scale 0-100) ([10]; 63 g ai/ha): 80
Pre-emerge Herbicidal Activity CASOB (phytotoxicity rating, scale 0-100) ([10]; 250 g ai/ha): 100
Pre-emerge Herbicidal Activity IPOHE (phytotoxicity rating, scale 0-100) ([11]; 63 g ai/ha): 100
Pre-emerge Herbicidal Activity IPOHE (phytotoxicity rating, scale 0-100) ([11]; 250 g ai/ha): 100
Pre-emerge crop damage RICE (phytotoxicity rating, scale 0-100) ([12]; 63 g ai/ha): 60
Pre-emerge crop damage RICE (phytotoxicity rating, scale 0-100) ([12]; 250 g ai/ha): 90
Pre-emerge crop damage CORN (phytotoxicity rating, scale 0-100) ([13]; 63 g ai/ha): 15
Pre-emerge crop damage CORN (phytotoxicity rating, scale 0-100) ([13]; 250 g ai/ha): 90
Post-emerge Herbicidal Activity SORHA ([14]; 63 g ai/ha): 10
Post-emerge Herbicidal Activity SORHA ([14]; 250 g ai/ha): 70
Post-emerge Herbicidal Activity ABUTH ([15]; 63 g ai/ha): 100
Post-emerge Herbicidal Activity ABUTH ([15]; 250 g ai/ha): 100
Post-emerge Herbicidal Activity CHEAL ([16]; 63 g ai/ha): 95
Post-emerge Herbicidal Activity CHEAL ([16]; 250 g ai/ha): 100
Post-emerge Herbicidal Activity AMARE ([17]; 63 g ai/ha): 90
Post-emerge Herbicidal Activity AMARE ([17]; 250 g ai/ha): 100
Post-emerge Herbicidal Activity ECHCG ([18]; 63 g ai/ha): 30
Post-emerge Herbicidal Activity ECHCG ([18]; 250 g ai/ha): 90
Post-emerge Herbicidal Activity DIGSA ([19]; 63 g ai/ha): 10
Post-emerge Herbicidal Activity DIGSA ([19]; 250 g ai/ha): 70
Post-emerge Herbicidal Activity SETVI ([20]; 63 g ai/ha): 20
Post-emerge Herbicidal Activity SETVI ([20]; 250 g ai/ha): 80
Post-emerge Herbicidal Activity CASOB ([21]; 63 g ai/ha): 65
Post-emerge Herbicidal Activity CASOB ([21]; 250 g ai/ha): 90
Post-emerge Herbicidal Activity IPOHE ([22]; 63 g ai/ha): 100
Post-emerge Herbicidal Activity IPOHE ([22]; 250 g ai/ha): 100
